Holding throughout (type): biochemical
One assay addresses T1, MMP-2 (Homo sapiens, UniProt P08253).
T1 construct: purchased Biomol
The assay can be described thus: In vitro specific inhibition of MMP-2 activity (Biomol assay kit). As to conditions: for IC50: selected standards, Table 4, read-out: inhibition expressed as IC50 against MMP-2 (converted); for in vitro MMP-2 inhibition activity, in words: summary of Tables 2 and 4. Here is the method:
(§1) Several extracts and sub-fractions from the leaves of Menyanthes trifoliata were prepared by liquid-liquid partitioning and fractionation on a Sephadex LH20 gel filtration column (see example 1) and evaluated for specific anti-MMP activity. In vitro specific inhibition of MMP-2 and MMP-9 activity was estimated with assay kits from Biomol®. Recombinant human MMP-1 enzyme may be obtained from any commercially available source. […] Therefore, a lower value indicates a stronger MMP inhibition.
(§2) To further understand which agents may be contributing to the MMP-1, 2, 9 inhibition activity, standards of the different phenol acids, flavonoids and coumarins, identified in Menyanthes trifoliata extracts, were tested for their in vitro inhibition of MMPs-1, 2 and 9. In vitro specific inhibition of MMP-2 and MMP-9 activity is estimated with assay kits from Biomol®. Recombinant human MMP-1 enzyme is obtained from any commercially available source.

The target in a further assay is T2, MMP-9 (Homo sapiens, UniProt P14780).
T2 construct: purchased Biomol
T2 sequence (P14780 107-444 limits assumed): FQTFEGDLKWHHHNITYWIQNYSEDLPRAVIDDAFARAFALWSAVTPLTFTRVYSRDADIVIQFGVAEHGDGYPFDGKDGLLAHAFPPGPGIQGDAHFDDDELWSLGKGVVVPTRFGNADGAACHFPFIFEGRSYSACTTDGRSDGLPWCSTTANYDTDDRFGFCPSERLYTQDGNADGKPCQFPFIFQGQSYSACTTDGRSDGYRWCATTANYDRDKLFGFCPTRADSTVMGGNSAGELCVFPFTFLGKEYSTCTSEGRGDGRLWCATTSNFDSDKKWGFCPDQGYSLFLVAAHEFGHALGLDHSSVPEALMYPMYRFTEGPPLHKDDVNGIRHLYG
The experiment in a line: In vitro specific inhibition of MMP-9 activity (Biomol assay kit). As to conditions: for IC50: selected standards, Table 4, read-out: inhibition expressed as IC50 against MMP-9 (converted); for in vitro MMP-9 inhibition activity, in words: summary of Tables 2 and 4. Here is the method: as §1, §2

Assay [1] concerns the target T3, Recombinant human MMP-1 enzyme (Homo sapiens, UniProt P03956).
T3 construct: purchased
T3 sequence (P03956 100-469): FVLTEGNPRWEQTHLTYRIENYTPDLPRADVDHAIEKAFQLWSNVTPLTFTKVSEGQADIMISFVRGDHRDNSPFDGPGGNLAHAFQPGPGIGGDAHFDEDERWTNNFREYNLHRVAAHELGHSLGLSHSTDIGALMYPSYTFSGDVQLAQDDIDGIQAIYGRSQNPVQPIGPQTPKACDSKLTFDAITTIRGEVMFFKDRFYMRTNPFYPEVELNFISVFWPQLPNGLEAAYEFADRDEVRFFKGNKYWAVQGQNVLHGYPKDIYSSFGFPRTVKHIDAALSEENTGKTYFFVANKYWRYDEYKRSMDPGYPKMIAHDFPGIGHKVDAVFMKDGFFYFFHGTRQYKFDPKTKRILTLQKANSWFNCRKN
The assay can be described thus: In vitro inhibition of MMP-1 activity. As to conditions: for in vitro MMP-1 inhibition activity, in words: summary of Tables 2 and 4. The source says: In vitro specific inhibition of MMP-2 and MMP-9 activity was estimated with assay kits from Biomol®. Recombinant human MMP-1 enzyme may be obtained from any commercially available source. […] Therefore, a lower value indicates a stronger MMP inhibition.
In vitro specific inhibition of MMP-2 and MMP-9 activity is estimated with assay kits from Biomol®. Recombinant human MMP-1 enzyme is obtained from any commercially available source.

Assay [2] in a line: Peroxynitrite scavenging (ABEL peroxynitrite antioxidant test kit with Pholasin). As to conditions: summary of Table 6. Here is the method: Assay was performed with the ABEL® peroxynitrite antioxidant test kit with Pholasin®. Standards of different phenolic acids and flavonoids, identified in […] trifoliata extracts, were tested for their in vitro peroxynitrite scavenging activity. Assay was performed with the ABEL® peroxynitrite antioxidant test kit with Pholasin®.

Where [3] appears, read: selected standards, Table 4, read-out: inhibition expressed as IC50 against MMP-1 (converted).

Where two headings read alike, the source gives them in different places.

By IC50 is commonly meant the point on the concentration scale where inhibition reaches its midpoint.

T1 sequence (P08253 110-446 limits assumed): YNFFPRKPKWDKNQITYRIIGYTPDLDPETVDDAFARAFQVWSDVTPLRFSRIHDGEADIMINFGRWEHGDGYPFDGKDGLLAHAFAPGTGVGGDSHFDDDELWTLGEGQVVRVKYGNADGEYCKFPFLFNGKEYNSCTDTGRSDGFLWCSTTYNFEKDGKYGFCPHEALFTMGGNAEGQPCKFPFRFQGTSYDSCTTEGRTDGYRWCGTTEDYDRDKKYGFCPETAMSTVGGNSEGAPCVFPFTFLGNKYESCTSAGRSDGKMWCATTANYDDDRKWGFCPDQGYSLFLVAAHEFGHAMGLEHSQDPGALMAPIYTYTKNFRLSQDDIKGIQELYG

`O=c1c(O[C@@H]2O[C@H](CO)[C@@H](O)[C@H](O)[C@H]2O)c(-c2ccc(O)c(O)c2)oc2cc(O)cc(O)c12` [Iso-quercitrin]: the IC50 on MMP-2 was 21.5 µM; at MMP-9, 198 µM; in assay [1], 49.5 µM.

As to `O=C(O)c1ccc(O)c(O)c1` [Protocatechuic acid], the “peroxynitrite scavenging activity, in words” value in assay [2] was “strong”.

`O=c1c(O)c(-c2ccc(O)c(O)c2)oc2cc(O)cc(O)c12` [Quercetin]: at MMP-2, the IC50 was 33.1 µM and the “in vitro MMP-2 inhibition activity, in words” value is reported as “strong”. Also, on MMP-9, the IC50 was 62.9 µM and the “in vitro MMP-9 inhibition activity, in words” value was “strong”. In assay [1], the “in vitro MMP-1 inhibition activity, in words” value was “strong”. For the same compound, the “peroxynitrite scavenging activity, in words” value in assay [2] is “strong”.

Consider `C[C@@H]1O[C@@H](OC[C@H]2O[C@@H](Oc3c(-c4ccc(O)c(O)c4)oc4cc(O)cc(O)c4c3=O)[C@H](O)[C@@H](O)[C@@H]2O)[C@H](O)[C@H](O)[C@H]1O` [Rutin], for which the IC50 is 45.9 µM on MMP-2, 70.4 µM on MMP-9 and 65.5 µM in assay [1] (setting [3]).

Regarding `COc1cc2ccc(=O)oc2cc1OC` [Scoparone], at MMP-2, the IC50 was 87.3 µM and the “in vitro MMP-2 inhibition activity, in words” value is listed as “strong”. Moreover, at MMP-9, the 50% inhibitory concentration (IC50) was 48.5 µM and the “in vitro MMP-9 inhibition activity, in words” value is recorded as “strong”. In assay [1] (setting [3]), the 50% inhibitory concentration (IC50) was 72.7 µM. In assay [1], the “in vitro MMP-1 inhibition activity, in words” value is “strong”.

Regarding `COc1cc2ccc(=O)oc2cc1O` [Scopoletin], on MMP-2, the IC50 was 93.7 µM and the “in vitro MMP-2 inhibition activity, in words” value was “strong”. On MMP-9, the 50% inhibitory concentration (IC50) was 130 µM and the “in vitro MMP-9 inhibition activity, in words” value is on record as “strong”. Moreover, the IC50 in assay [1] (setting [3]) is 78.1 µM. Moreover, in assay [1], the “in vitro MMP-1 inhibition activity, in words” value is listed as “strong”.

With `COc1cc(/C=C/C(=O)O)ccc1O` [ferulic acid], the half-inhibitory concentration (IC50) is 113 µM at MMP-2, 103 µM on MMP-9 and 144 µM in assay [1] (setting [3]). Further, the “in vitro MMP-2 inhibition activity, in words” value on MMP-2 is “strong”. Further, the “in vitro MMP-9 inhibition activity, in words” value at MMP-9 is “strong”. In assay [1], the “in vitro MMP-1 inhibition activity, in words” value is given as “strong”. For the same compound, the “peroxynitrite scavenging activity, in words” value in assay [2] was “strong”.

In the case of `O=C(O)c1ccc(O)cc1` [p-hydroxy-benzoic acid], the “in vitro MMP-9 inhibition activity, in words” value at MMP-9 is “not”. Also, the “in vitro MMP-1 inhibition activity, in words” value in assay [1] is “not”.

The values above are taken from US20110033397A1, “Anti-Aging Compositions Comprising Menyanthes Trifoliata Leaf Extracts And Methods Of Use Thereof” (priority 2006, published 2011).
